Assay results published in patent US20180311342A1, “IMMUNOSTIMULATING AGENT” (AJINOMOTO CO., INC., priority 2017, published 2018).

Key:
[1] = test system: anti-OVA-specific IgG2a subclass antibody; test: Adjuvant activity test: anti-OVA-specific IgG2a subclass antibody in serum of OVA-immunized mice (ELISA); format: in vivo, BALB/c mice; settings: after secondary immunization, serum 2 weeks later; OVA 5 μg + compound 0.256 μmol in 5% αCD-added saline (Addavax mixed with saline at 1:1), dorsal-subcutaneous; compared to OVA single administration group
[2] = test system: anti-OVA-specific IgG1 subclass antibody; test: Adjuvant activity test: anti-OVA-specific IgG1 subclass antibody in serum of OVA-immunized mice (ELISA); format: in vivo, BALB/c mice; settings: after secondary immunization, serum 2 weeks later; OVA 5 μg + compound 0.256 μmol in 5% αCD-added saline (Addavax mixed with saline at 1:1), dorsal-subcutaneous; compared to OVA single administration group

Structure (SMILES) | anti-OVA-specific IgG2a subclass antibody production [1] | anti-OVA-specific IgG1 subclass antibody production [2]
CCCCCCCCCCCCCCCC(=O)N[C@@H](CCCNC(=N)N)C(=O)NCCCCCCCCCCCC.Cl [SZ111, N-[(1S)-1-(dodecylcarbamoyl)-4-guanidino-butyl]hexadecanamide hydrochloride] | significantly increased | significantly increased
CCCCCCCCCCCCCCCCCCCCCC(=O)N[C@@H](CC(C)C)C(=O)NCCCCCCCC [SZ198, N-[(1S)-3-methyl-1-(octylcarbamoyl)butyl]docosanamide] | tended to increase | tended to increase
CCCCCCCCCCCCCCCCCCCCCC(=O)N[C@@H](CC(C)C)C(=O)NCCCCCCCCCCCC [SZ197, N-[(1S)-1-(dodecylcarbamoyl)-3-methyl-butyl]docosanamide] | tended to increase | tended to increase
CCCCCCCCCCCCCCCC(=O)N[C@@H](CCCCN)C(=O)NCCCCCCCCCCCC.Cl [SZ153, N-[(1S)-5-amino-1-(dodecylcarbamoyl)pentyl]hexadecanamide hydrochloride] | significantly increased | significantly increased
CCCCCCCCCCCCCCCCCC(=O)N[C@@H](CCCCN)C(=O)NCCCCCCCCCCCC.Cl [SZ185, N-[(1S)-5-amino-1-(dodecylcarbamoyl)pentyl]octadecanamide hydrochloride] | significant enhancement | significant enhancement
CCCCCCCCCCCCCCCCCCCCCC(=O)N[C@@H](CCCC)C(=O)NCCCCCCCCCCCC [SZ155, N-[(1S)-1-(dodecylcarbamoyl)pentyl]docosanamide] | showed a tendency to increase | showed a tendency to increase
CCCCCCCCCCCCCCCCCCNC(=O)N[C@@H](CCCNC(=N)N)C(=O)NCCCCCCCCCCCC.Cl [SZ211, (2S)—N-dodecyl-5-guanidino-2-(octadecylcarbamoylamino)pentanamide hydrochloride] | significant enhancement | significant enhancement
CCCCCCCCCCCCCCCCCCCCCC(=O)N[C@@H](CCCNC(=N)N)C(=O)N(CCCCCCC)CCCCCCC.Cl [SZ159, N-[(1S)-1-(diheptylcarbamoyl)-4-guanidino-butyl]docosanamide hydrochloride] | showed a tendency to increase | showed a tendency to increase
CCCCCCCCCCCCCCCC(=O)N[C@@H](CC(C)C)C(=O)NCCCCCCCCCCCC [SZ144, N-[(1S)-1-(dodecylcarbamoyl)-3-methyl-butyl]hexadecanamide] | showed a tendency to increase | showed a tendency to increase
CCCCCCCC/C=C/CCCCCCCC(=O)N[C@@H](CCCNC(=N)N)C(=O)NCCCCCCCCCCCC.Cl [SZ161, (E)-N-[(1S)-1-(dodecylcarbamoyl)-4-guanidino-butyl]octadeca-9-enamide hydrochloride] | significantly increased | significantly increased
CCCCCCCCCCCCCCCCOC(=O)N[C@@H](CCCNC(=N)N)C(=O)NCCCCCCCCCCCC.Cl [SZ150, Hexadecyl N-[(1S)-1-(dodecylcarbamoyl)-4-guanidino-butyl]carbamate hydrochloride] | significantly increased | significantly increased
